Laboratory results published in US11434221B2, “Pyrazine-4-carbamate or -urea derivatives as herbicides” (Syngenta Participations AG, priority 2017, dated 2022).

Tests used:
Assay type in all cases: in vivo
Design in all cases: key: 5=total damage to plant; 0=no damage to plant
[1] = test system: Alopecurus myosuroides (ALOMY); assay: Pre-emergence herbicidal activity, glasshouse pot test; details: Rate 1000 g/ha; sprayed one day after sowing; evaluated after 13 days
Procedure: (§1) Seeds of a variety of test species were sown in standard soil in pots: Triticum aestivium (TRZAW), Avena fatua (AVEFA), Alopecurus myosuroides (ALOMY), Echinochloa crus-galli (ECHCG), Lolium perenne (LOLPE), and Setaria faberi (SETFA). After cultivation for one day (pre-emergence) under controlled conditions in a glasshouse (at 24/16° C., day/night; 14 hours light; 65% humidity), the plants were sprayed with an aqueous spray solution derived from the formulation of the technical active ingredient in acetone/water (50:50) solution containing 0.5% Tween 20 (polyoxyethelyene sorbitan monolaurate, CAS RN 9005-64-5). The test plants were then grown in a glasshouse under controlled conditions (at 24/16° C., day/night; 14 hours light; 65% humidity) and watered twice daily. After 13 days, the test was evaluated (5=total damage to plant; 0=no damage to plant).

Avena fatua (AVEFA) [2] = assay: as above; details: Rate 1000 g/ha; sprayed one day after sowing; evaluated after 13 days
Procedure: as §1

[3] = test system: Echinochloa crus-galli (ECHCG); assay: as above; details: Rate 1000 g/ha; sprayed one day after sowing; evaluated after 13 days
Procedure: as §1

Lolium perenne (LOLPE) [4] = assay: as above; details: Rate 1000 g/ha; sprayed one day after sowing; evaluated after 13 days
Procedure: as §1

Setaria faberi (SETFA) [5] = assay: as above; details: Rate 1000 g/ha; sprayed one day after sowing; evaluated after 13 days
Procedure: as §1

[6] = test system: Triticum aestivium (TRZAW); assay: as above; details: Rate 1000 g/ha; sprayed one day after sowing; evaluated after 13 days
Procedure: as §1

[7] = test system: Alopecurus myosuroides (ALOMY); assay: Post-emergence herbicidal activity, glasshouse pot test; details: Rate 1000 g/ha; sprayed after 8 days cultivation; evaluated after 13 days
Procedure: (§2) Seeds of a variety of test species were sown in standard soil in pots: Triticum aestivium (TRZAW), Avena fatua (AVEFA), Alopecurus myosuroides (ALOMY), Echinochloa crus-galli (ECHCG), Lolium perenne (LOLPE), and Setaria faberi (SETFA). After 8 days cultivation (post-emergence) under controlled conditions in a glasshouse (at 24/16° C., day/night; 14 hours light; 65% humidity), the plants were sprayed with an aqueous spray solution derived from the formulation of the technical active ingredient in acetone/water (50:50) solution containing 0.5% Tween 20 (polyoxyethelyene sorbitan monolaurate, CAS RN 9005-64-5). The test plants were then grown in a glasshouse under controlled conditions (at 24/16° C., day/night; 14 hours light; 65% humidity) and watered twice daily. After 13 days, the test was evaluated (5=total damage to plant; 0=no damage to plant).

Avena fatua (AVEFA) [8] = assay: as above; details: Rate 1000 g/ha; sprayed after 8 days cultivation; evaluated after 13 days
Procedure: as §2

[9] = test system: Echinochloa crus-galli (ECHCG); assay: as above; details: Rate 1000 g/ha; sprayed after 8 days cultivation; evaluated after 13 days
Procedure: as §2

Lolium perenne (LOLPE) [10] = assay: as above; details: Rate 1000 g/ha; sprayed after 8 days cultivation; evaluated after 13 days
Procedure: as §2

Setaria faberi (SETFA) [11] = assay: as above; details: Rate 1000 g/ha; sprayed after 8 days cultivation; evaluated after 13 days
Procedure: as §2

[12] = test system: Triticum aestivium (TRZAW); assay: as above; details: Rate 1000 g/ha; sprayed after 8 days cultivation; evaluated after 13 days
Procedure: as §2

SMILES | Control of weed species after pre-emergence application, ALOMY (damage score 0-5) [1] | Control of weed species after pre-emergence application, AVEFA (damage score 0-5) (Avena fatua (AVEFA) [2]) | Control of weed species after pre-emergence application, ECHCG (damage score 0-5) [3] | Control of weed species after pre-emergence application, LOLPE (damage score 0-5) (Lolium perenne (LOLPE) [4]) | Control of weed species after pre-emergence application, SETFA (damage score 0-5) (Setaria faberi (SETFA) [5]) | Control of weed species after pre-emergence application, TRAZW (damage score 0-5) [6] | Control of weed species after post-emergence application, ALOMY (damage score 0-5) [7] | Control of weed species after post-emergence application, AVEFA (damage score 0-5) (Avena fatua (AVEFA) [8]) | Control of weed species after post-emergence application, ECHCG (damage score 0-5) [9] | Control of weed species after post-emergence application, LOLPE (damage score 0-5) (Lolium perenne (LOLPE) [10]) | Control of weed species after post-emergence application, SETFA (damage score 0-5) (Setaria faberi (SETFA) [11]) | Control of weed species after post-emergence application, TRAZW (damage score 0-5) [12]
CC(C)(C)OC(=O)N(C(=O)OC(C)(C)C)c1ncc(-c2cncnc2)nc1C(F)(F)F [Compound H1] | 0 | 2 | 4 | 1 | 4 | 0 | 0 | 4 | 5 | 3 | 5 | 0
Cc1nc(-c2cncc(F)c2)cnc1N(C(=O)OC(C)(C)C)C(=O)OC(C)(C)C [Compound H2, 2-bis(tert-butoxycarbonyl)amino-3-methyl-5-(5-fluoropyrid-3-yl)pyrazine] | 0 | 2 | 4 | 2 | 5 | 0 | 0 | 3 | 5 | 2 | 5 | 0
CC(C)(C)OC(=O)Nc1ncc(-c2cncc(F)c2)nc1C(F)(F)F [Compound H4] | 0 | 3 | 4 | 1 | 5 | 0 | 0 | 3 | 5 | 2 | 5 | 1
CC(C)(C)OC(=O)N(C(=O)OC(C)(C)C)c1ncc(-c2cncc(F)c2)nc1C(F)(F)F [Compound H5] | 0 | 2 | 5 | 1 | 5 | 0 | 0 | 3 | 5 | 2 | 5 | 1
COc1nc(-c2cncc(F)c2)cnc1N(C(=O)OC(C)(C)C)C(=O)OC(C)(C)C [Compound H6] | 0 | 1 | 3 | 0 | 4 | 1 | 0 | 2 | 3 | 1 | 4 | 1
COc1nc(-c2cncc(F)c2)cnc1NC(=O)OC(C)(C)C [Compound H7] | 0 | 1 | 3 | 0 | 5 | 0 | 0 | 3 | 5 | 2 | 5 | 1
CC(C)(C)OC(=O)N(C(=O)OC(C)(C)C)c1ncc(-c2cncc(F)c2)nc1OCc1ccccc1 [Compound H8] | 0 | 0 | 1 | 1 | 2 | 0 | 0 | 1 | 1 | 0 | 1 | 0
CC(C)(C)OC(=O)N(C(=O)OC(C)(C)C)c1ncc(-c2cncc(F)c2)nc1C#N [Compound H9] | 0 | 1 | 2 | 1 | 5 | 0 | 0 | 3 | 3 | 1 | 5 | 0
Cc1nc(-c2cncc(F)c2)cnc1NC(=O)OC(C)(C)C [Compound H17] | 0 | 2 | 4 | 3 | 4 | 0 | 2 | 3 | 4 | 3 |  | 0
